Experimental data: patent publication US6642264B1, “Thiazolobenzoimidazole derivatives” (Yamanouchi Pharmaceutical Co., Ltd., priority 1999, dated 2003)
Structures can show the parent of a compound that is named as a salt.

Key:
mGluR1 α = target: T1, mGluR1 α (Rattus norvegicus, UniProt P23385); assay: phosphatidylinositol (PI) hydrolysis system using mGluR1 α expression cells; type: cell-based; conditions: read-out: IC50, inhibition of the reaction of glutamic acid in PI hydrolysis system
T1 construct: expressed in transfected cells
T1 sequence (P23385 19-1199): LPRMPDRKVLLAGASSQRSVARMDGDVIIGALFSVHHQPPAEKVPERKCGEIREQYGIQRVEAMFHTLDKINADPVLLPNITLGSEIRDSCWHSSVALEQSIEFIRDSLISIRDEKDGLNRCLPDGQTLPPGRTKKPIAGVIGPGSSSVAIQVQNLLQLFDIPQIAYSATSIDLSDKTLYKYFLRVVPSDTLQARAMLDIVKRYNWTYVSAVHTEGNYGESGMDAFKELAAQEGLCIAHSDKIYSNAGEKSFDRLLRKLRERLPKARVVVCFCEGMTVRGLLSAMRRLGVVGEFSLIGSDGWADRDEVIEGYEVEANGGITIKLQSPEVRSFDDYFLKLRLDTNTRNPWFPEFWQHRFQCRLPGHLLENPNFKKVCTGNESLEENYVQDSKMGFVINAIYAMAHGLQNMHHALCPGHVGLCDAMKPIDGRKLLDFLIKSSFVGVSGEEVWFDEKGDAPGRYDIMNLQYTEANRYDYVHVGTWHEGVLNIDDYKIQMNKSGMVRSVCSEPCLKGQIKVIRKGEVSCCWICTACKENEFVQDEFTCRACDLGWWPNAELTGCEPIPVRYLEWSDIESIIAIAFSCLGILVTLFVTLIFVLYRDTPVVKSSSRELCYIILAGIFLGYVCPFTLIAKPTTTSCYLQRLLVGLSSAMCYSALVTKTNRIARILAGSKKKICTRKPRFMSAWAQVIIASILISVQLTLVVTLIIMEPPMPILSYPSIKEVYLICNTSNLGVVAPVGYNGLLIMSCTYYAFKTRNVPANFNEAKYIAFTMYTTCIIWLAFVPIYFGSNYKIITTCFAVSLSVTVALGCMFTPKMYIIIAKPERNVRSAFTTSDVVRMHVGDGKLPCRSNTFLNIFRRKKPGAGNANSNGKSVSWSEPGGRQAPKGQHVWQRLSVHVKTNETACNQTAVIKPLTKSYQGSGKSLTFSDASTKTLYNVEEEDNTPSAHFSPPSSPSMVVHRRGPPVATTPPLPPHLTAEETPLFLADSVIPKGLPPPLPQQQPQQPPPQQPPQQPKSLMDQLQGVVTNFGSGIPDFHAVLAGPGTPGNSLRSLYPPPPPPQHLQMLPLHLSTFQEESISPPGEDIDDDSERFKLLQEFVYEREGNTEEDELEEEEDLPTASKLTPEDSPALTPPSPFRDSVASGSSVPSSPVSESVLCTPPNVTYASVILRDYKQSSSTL

mGluR1 = target: T2, mGluR1 (Rattus norvegicus, UniProt P23385); assay: mGluR1 binding test with tritium-labeled ligand on rat cerebellum P2 membrane fraction
T2 construct: from tissue; host or cells: rat (Wistar) cerebellum P2 membrane fraction
T2 sequence (P23385 19-1199): as above
Description: Rats (Wistar, males, 9 to 12 weeks of age) were decapitated to excise cerebella. After weight measurement, they were homogenized in 7 to 10 volumes of 0.32 M sucrose solution. After 15 minutes of centrifugation at 900×g, the supernatant was preserved in a container (in ice). The precipitate was again homogenized in 0.32 M sucrose solution of the same volume of the first time and centrifuged at 900×g for 15 minutes. The supernatant obtained this time was combined with the previously obtained supernatant and centrifuged at 15,000×g for 20 minutes. The precipitate was homogenized in 5 mM Tris-HCl, pH 7.4, and centrifuged at 15,000×g for 15 minutes. This step was repeated again. The precipitate was homogenized in 50 mM Tris-HCl, pH 7.4, and centrifuged at 15,000×g for 15 minutes. The precipitate was homogenized in an appropriate amount of 50 mM Tris-HCl, pH 7.4, subdivided into small portions and then preserved at −80° C.
The binding test was carried out by the following modified method of Thomsen et al.
As the assay buffer, 50 mM Tris-HCl, 2.5 mM CaCl2, pH 7.4, was used. […] Quantity of the radioactivity was measured using a liquid scintillation counter. […]

| IC50 (mGluR1 α) | Bmax in the saturation test (mGluR1) | Kd (mGluR1; room temperature, 45 minutes, read-out: KD value in the saturation test) | SMILES |
| --- | --- | --- | --- |
| 20 nM |  |  | CN(C(=O)c1cn2c(nc3ccc(NC(=O)CN)cc32)s1)C1CCCCC1 [Example 41, N-Cyclohexyl-6-glycylamino-N-methylthiazolo[3,2-a]benzoimidazole-2-carboxamide dihydrochloride] |
|  | 3.9 pmol/mg protein | 47 nM | [3H]C([3H])([3H])N(C(=O)c1sc2nc3ccc(N)cc3n2c1C)C1CCCCC1 [[^3H]-6-Amino-N-cyclohexyl-N,3-dimethylthiazolo[3,2-a]benzoimidazole-2-carboxamide] |
